In patent US9481676B2, “Azepino[4,5-B]indoles and methods of use” (Medivation Technologies, Inc., priority 2008, dated 2016):

Legend:
[1] = biological target: T1, human recombinant adrenergic α1D receptor (Homo sapiens, UniProt P25100); assay: Adrenergic alpha1D radioligand binding ([3H]Prozosin); conditions: compound at 1 μM; read-out: Adrenergic (1 μM) α1D, percent inhibition of specific binding
T1 construct: expressed in transfected cells; host or cells: HEK-293 cells
T1 sequence (P25100 1-572): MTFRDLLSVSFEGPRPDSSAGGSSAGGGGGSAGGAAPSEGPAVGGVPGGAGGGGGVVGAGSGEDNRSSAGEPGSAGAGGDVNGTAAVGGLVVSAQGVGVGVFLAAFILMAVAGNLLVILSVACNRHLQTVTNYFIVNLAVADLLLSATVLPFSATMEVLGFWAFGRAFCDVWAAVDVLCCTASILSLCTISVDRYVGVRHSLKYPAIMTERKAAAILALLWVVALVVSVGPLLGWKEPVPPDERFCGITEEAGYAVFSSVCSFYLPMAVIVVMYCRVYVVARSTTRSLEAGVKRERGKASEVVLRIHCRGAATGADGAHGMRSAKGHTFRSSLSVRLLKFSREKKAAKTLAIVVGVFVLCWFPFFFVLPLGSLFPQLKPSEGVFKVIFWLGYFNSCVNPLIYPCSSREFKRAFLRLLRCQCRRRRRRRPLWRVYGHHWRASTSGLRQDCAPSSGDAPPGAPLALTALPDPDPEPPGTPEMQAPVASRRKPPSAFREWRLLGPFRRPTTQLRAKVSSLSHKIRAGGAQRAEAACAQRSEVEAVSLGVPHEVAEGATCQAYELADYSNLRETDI
Procedure: To evaluate in radioligand binding assays the activity of compounds of the invention, human recombinant adrenergic α1D receptor expressed in human embryonic kidney (HEK-293) cells (Kenny, B. A. et al. Br. J. Pharmacol. 115(6):981, 1995) in a 50 mM Tris-HCl buffer, pH 7.4, was used. Compounds of invention were incubated with 0.6 nM [^3H]Prozosin for 60 min. at 25° C. Non-specific binding was estimated in the presence of 10 μM phentolamine. Receptor proteins were filtered and washed, the filters were then counted to determine [^3H]Prozosin specifically bound. Compounds were screened at 1 μM or lower, using 1% DMSO as vehicle. Biochemical assay results are presented as the percent inhibition of specific binding in Table 5.

[2] = biological target: T2, human recombinant serotonin (5-Hydroxytryptamine) 5-HT6 receptor (Homo sapiens, UniProt P50406); assay: Serotonin 5-HT6 radioligand binding ([3H]LSD); conditions: compound at 1 μM; read-out: Serotonin (1 μM) 5-HT6, percent inhibition of specific binding
T2 construct: expressed in transfected cells; host or cells: human HeLa cells
T2 sequence (P50406 whole entry): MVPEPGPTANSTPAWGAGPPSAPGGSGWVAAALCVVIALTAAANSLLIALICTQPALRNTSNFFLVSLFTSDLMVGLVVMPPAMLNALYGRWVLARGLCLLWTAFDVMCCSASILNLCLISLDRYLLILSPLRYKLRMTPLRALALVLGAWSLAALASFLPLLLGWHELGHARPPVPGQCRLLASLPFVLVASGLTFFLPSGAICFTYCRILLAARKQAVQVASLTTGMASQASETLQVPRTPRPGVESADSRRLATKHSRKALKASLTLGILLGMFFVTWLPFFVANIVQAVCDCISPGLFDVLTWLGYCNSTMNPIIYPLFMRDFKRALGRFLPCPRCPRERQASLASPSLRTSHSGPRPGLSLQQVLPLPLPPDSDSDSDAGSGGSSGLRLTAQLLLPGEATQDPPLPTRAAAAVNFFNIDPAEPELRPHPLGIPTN
Outline: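 Human recombinant 5-HT6 receptor from HeLa cells incubated with 1.5 nM [3H]LSD for 120 min at 37° C in 50 mM Tris-HCl pH 7.4, 150 mM NaCl, 2 mM ascorbic acid, 0.001% BSA. Nonspecific binding defined with 5 μM serotonin; bound ligand counted after filtration.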

[3] = biological target: T3, human recombinant serotonin (5-Hydroxytryptamine) 5-HT2C receptor (Homo sapiens, UniProt P28335); assay: Serotonin 5-HT2C radioligand binding ([3H]Mesulergine); conditions: compound at 1 μM; read-out: Serotonin (1 μM) 5-HT2C, percent inhibition of specific binding
T3 construct: expressed in transfected cells; host or cells: CHO-K1 cells
T3 sequence (P28335 33-458): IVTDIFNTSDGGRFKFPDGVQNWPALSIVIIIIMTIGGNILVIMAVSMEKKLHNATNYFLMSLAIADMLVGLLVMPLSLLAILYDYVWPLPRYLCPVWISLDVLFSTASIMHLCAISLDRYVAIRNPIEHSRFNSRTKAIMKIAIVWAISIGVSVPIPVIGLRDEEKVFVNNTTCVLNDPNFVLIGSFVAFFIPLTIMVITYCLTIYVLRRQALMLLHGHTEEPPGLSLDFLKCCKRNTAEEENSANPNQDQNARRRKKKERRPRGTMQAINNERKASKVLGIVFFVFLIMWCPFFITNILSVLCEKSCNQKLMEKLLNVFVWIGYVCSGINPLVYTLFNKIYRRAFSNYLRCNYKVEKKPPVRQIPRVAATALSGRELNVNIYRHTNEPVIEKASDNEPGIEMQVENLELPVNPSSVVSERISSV
Outline: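 Membranes from CHO-K1 cells expressing human 5-HT2C, incubated with 1 nM [3H]mesulergine for 60 min at 25 °C in 50 mM Tris-HCl pH 7.4 with ascorbic acid and pargyline.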

Row | Compound | inhibition at 1 µM [1] [%] | inhibition at 1 µM [2] [%] | inhibition at 1 µM [3] [%]
1 | Cc1ccc2c(c1)c1c(n2CCc2cncc(Cl)c2)CCN(C)CC1 [Compound No. 4, 6-(2-(5-chloropyridin-3-yl)ethyl)-1,2,3,4,5,6-hexahydro-3,9-dimethylazepino[4,5-b]indole] | 76 | 83 | 89
2 | CN1CCc2c(n(CCc3ccncc3)c3ccc(Cl)cc23)CC1 [Compound No. 5, 9-chloro-1,2,3,4,5,6-hexahydro-3-methyl-6-(2-(pyridin-4-yl)ethyl)azepino[4,5-b]indole] | 88 | 93 | 90
3 | Cc1ccc2c(c1)c1c(n2CCc2ccncc2)CCN(C)CC1 [Compound No. 6, 1,2,3,4,5,6-hexahydro-3,9-dimethyl-6-(2-(pyridin-4-yl)ethyl)azepino[4,5-b]indole] | 92 | 82 | 92
4 | Cc1ccc(C(O)Cn2c3c(c4cc(Cl)ccc42)CCN(C)CC3)cn1 (stereo not drawn) [Compound No. 7, 2-(9-chloro-2,3,4,5-tetrahydro-3-methylazepino[4,5-b]indol-6(1H)-yl)-1-(6-methylpyridin-3-yl)ethanol] | 69 | 36 | 64
5 | CN1CCc2c(n(CCc3ccccn3)c3ccc(Cl)cc23)CC1 [Compound No. 8, 9-chloro-1,2,3,4,5,6-hexahydro-3-methyl-6-(2-(pyridin-2-yl)ethyl)azepino[4,5-b]indole] | 91 | 100 | 95
6 | Cc1ccc2c(c1)c1c(n2CCc2ccccn2)CCN(C)CC1 [Compound No. 9, 1,2,3,4,5,6-hexahydro-3,9-dimethyl-6-(2-(pyridin-2-yl)ethyl)azepino[4,5-b]indole] | 80 | 81 | 93
7 | CN1CCc2c(n(CCc3cncc(Cl)c3)c3ccc(Cl)cc23)CC1 [Compound No. 10, 9-chloro-6-(2-(5-chloropyridin-3-yl)ethyl)-1,2,3,4,5,6-hexahydro-3-methylazepino[4,5-b]indole] | 89 | 97 | 92
8 | Cc1ccc2c(c1)c1c(n2CCc2ccc(C(=O)O)nc2)CCN(C)CC1 [Compound No. 11, 5-(2-(2,3,4,5-tetrahydro-3,9-dimethylazepino[4,5-b]indol-6(1H)-yl)ethyl)pyridine-2-carboxylic acid] | 7 | 4 | 34
9 | CN1CCc2c(n(CC(C)(O)c3ccc(Cl)cc3)c3ccc(Cl)cc23)CC1 (stereo not drawn) [Compound No. 12, 1-(9-chloro-2,3,4,5-tetrahydro-3-methylazepino[4,5-b]indol-6(1H)-yl)-2-(4-chlorophenyl)propan-2-ol] | 68 | 83 | 92
10 | CN1CCc2c(n(CC(C)(O)c3ccc(F)cc3)c3ccc(Cl)cc23)CC1 (stereo not drawn) [Compound No. 13, 1-(9-chloro-2,3,4,5-tetrahydro-3-methylazepino[4,5-b]indol-6(1H)-yl)-2-(4-fluorophenyl)propan-2-ol] | 76 | 100 | 89
11 | Cc1ccc2c(c1)c1c(n2CC(C)(O)c2ccc(F)cc2)CCN(C)CC1 (stereo not drawn) [Compound No. 14, 2-(4-fluorophenyl)-1-(2,3,4,5-tetrahydro-3,9-dimethylazepino[4,5-b]indol-6(1H)-yl)propan-2-ol] | 75 | 93 | 95
12 | Cc1ccc2c(c1)c1c(n2CC(C)(O)c2ccc(Cl)cc2)CCN(C)CC1 (stereo not drawn) [Compound No. 15, 2-(4-chlorophenyl)-1-(2,3,4,5-tetrahydro-3,9-dimethylazepino[4,5-b]indol-6(1H)-yl)propan-2-ol] | 72 | 82 | 100
13 | CN1CCc2c(n(CC(O)c3ccc(Cl)cc3)c3ccc(Cl)cc23)CC1 (stereo not drawn) [Compound No. 16, 2-(9-chloro-2,3,4,5-tetrahydro-3-methylazepino[4,5-b]indol-6(1H)-yl)-1-(4-chlorophenyl)ethanol] | 85 | 78 | 92
14 | Cc1ccc2c(c1)c1c(n2CC(O)c2ccc(Cl)cc2)CCN(C)CC1 (stereo not drawn) [Compound No. 17, 1-(4-chlorophenyl)-2-(2,3,4,5-tetrahydro-3,9-dimethylazepino[4,5-b]indol-6(1H)-yl)ethanol] | 95 | 80 | 93
15 | CN1CCc2c(n(CC(O)c3cccnc3)c3ccc(Cl)cc23)CC1 (stereo not drawn) [Compound No. 18, 2-(9-chloro-2,3,4,5-tetrahydro-3-methylazepino[4,5-b]indol-6(1H)-yl)-1-(pyridin-3-yl)ethanol] | 58 | 60 | 64
16 | Cc1ccc2c(c1)c1c(n2CC(O)c2cccnc2)CCN(C)CC1 (stereo not drawn) [Compound No. 19, 2-(2,3,4,5-tetrahydro-3,9-dimethylazepino[4,5-b]indol-6(1H)-yl)-1-(pyridin-3-yl)ethanol] | 54 | 42 | 52
17 | Cc1ccc2c(c1)c1c(n2CCc2ccc(C(F)(F)F)nc2)CCN(C)CC1 [Compound No. 20, 6-(2-(6-(trifluoromethyl)pyridin-3-yl)ethyl)-1,2,3,4,5,6-hexahydro-3,9-dimethylazepino[4,5-b]indole] | 91 | 46 | 77
18 | CN1CCc2c(n(CCc3ccc(C(=O)O)nc3)c3ccc(Cl)cc23)CC1 [Compound No. 21, 5-(2-(9-chloro-2,3,4,5-tetrahydro-3-methylazepino[4,5-b]indol-6(1H)-yl)ethyl)pyridine-2-carboxylic acid] | 17 | 30 | 29
19 | Cc1ccc2c(c1)c1c(n2CC(=O)NC2CCCCC2)CCN(C)CC1 [Compound No. 22, N-cyclohexyl-2-(2,3,4,5-tetrahydro-3,9-dimethylazepino[4,5-b]indol-6(1H)-yl)acetamide] | 1 | -12 | -4
20 | Cc1ccc2c(c1)c1c(n2CC(O)c2ccc(C)nc2)CCN(C)CC1 (stereo not drawn) [Compound No. 23, 2-(2,3,4,5-tetrahydro-3,9-dimethylazepino[4,5-b]indol-6(1H)-yl)-1-(6-methylpyridin-3-yl)ethanol] | 17 | 17 | 37
21 | CN1CCc2c(n(CC(O)c3ccccc3)c3ccc(Cl)cc23)CC1 (stereo not drawn) [Compound No. 24, 2-(9-chloro-2,3,4,5-tetrahydro-3-methylazepino[4,5-b]indol-6(1H)-yl)-1-phenylethanol] | 85 | 99 | 95
22 | Cc1ccc2c(c1)c1c(n2CC(O)c2ccccc2)CCN(C)CC1 (stereo not drawn) [Compound No. 25, 2-(2,3,4,5-tetrahydro-3,9-dimethylazepino[4,5-b]indol-6(1H)-yl)-1-phenylethanol] | 96 | 93 | 94
